Measured values from patent US20250381243A1, “HETEROCYCLES AND USES THEREOF” (Kumquat Biosciences Inc., priority 2022, published 2025).
Read-outs that look alike come from different tables or passages of the source.

Tested on: A549 cells
Experiment: Cell proliferation assay (CellTiter-Glo), cells with K-Ras G12S mutation
Assay type: cell-based
Conditions: Homo sapiens, read-out: Inhibition of A549 Cells (IC50)
Procedure, shortened: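 A549 (K-Ras G12S) cells in RPMI-1640 with 10% heat-inactivated FBS, plated in standard or ultra-low-attachment 384-well format, treated next day with a dilution series (e.g., 10-point, 3-fold). Viability read by CellTiter-Glo luminescence about 6 days later; IC50 from four-parameter fit.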

Structure (SMILES)	IC50 (≤500 nM) [nM]	IC50 (500 nM to 5 μM (mixed units)) [nM]
CC(C)[C@H]1N(C(=O)n2cnc(F)n2)C[C@]12CC[C@H](C)N(c1nc(OC[C@@]34CCCN3C[C@H](F)C4)nc3c(F)c(-c4ccc(F)c5sc(N)c(C#N)c45)c(Cl)cc13)C2 [Compound 213, 2-amino-4-(6-chloro-8-fluoro-4-((1R,4R,7S)-2-(3-fluoro-1H-1,2,4-triazole-1-carbonyl)-1-isopropyl-7-methyl-2,6-diazaspiro[3.5]nonan-6-yl)-2-(((2R,7aS)-2-fluorotetrahydro-1H-pyrrolizin-7a(5H)-yl)methoxy)quinazolin-7-yl)-7-fluorobenzo[b]thiophene-3-carbonitrile]	≤ 500	
CC1([C@H]2N(C(=O)n3cnc(F)n3)C[C@]23CCCN(c2nc(OC[C@@]45CCCN4C[C@H](F)C5)nc4c(F)c(-c5ccc(F)c6sc(N)c(C#N)c56)c(Cl)cc24)C3)CC1 [Compound 216, 2-amino-4-(6-chloro-8-fluoro-4-((1R,4R)-2-(3-fluoro-1H-1,2,4-triazole-1-carbonyl)-1-(1-methylcyclopropyl)-2,6-diazaspiro[3.5]nonan-6-yl)-2-(((2R,7aS)-2-fluorotetrahydro-1H-pyrrolizin-7a(5H)-yl)methoxy)quinazolin-7-yl)-7-fluorobenzo[b]thiophene-3-carbonitrile]	≤ 500	
COCC1([C@H]2N(C(=O)n3cnc(F)n3)C[C@]23CCCCN(c2nc(OC[C@@]45CCCN4C[C@H](F)C5)nc4c(F)c(-c5ccc(F)c6sc(N)c(C#N)c56)c(Cl)cc24)C3)CC1 [Compound 219, 2-amino-4-(6-chloro-8-fluoro-4-((1S,4R)-2-(3-fluoro-1H-1,2,4-triazole-1-carbonyl)-1-(1-(methoxymethyl)cyclopropyl)-2,6-diazaspiro[3.6]decan-6-yl)-2-(((2R,7aS)-2-fluorotetrahydro-1H-pyrrolizin-7a(5H)-yl)methoxy)quinazolin-7-yl)-7-fluorobenzo[b]thiophene-3-carbonitrile]	≤ 500	
C[C@H]1CC[C@]2(CN(C(=O)n3cnc(F)n3)[C@@H]2C2(C)CC2)CN1c1nc(OC[C@]23CCCN2CC(=C(F)F)C3)nc2c(F)c(-c3ccc(F)c4sc(N)c(C#N)c34)c(Cl)cc12 [Compound 223, 2-amino-4-(6-chloro-2-(((R)-2-(difluoromethylene)tetrahydro-1H-pyrrolizin-7a(5H)-yl)methoxy)-8-fluoro-4-((1R,4R,7S)-2-(3-fluoro-1H-1,2,4-triazole-1-carbonyl)-7-methyl-1-(1-methylcyclopropyl)-2,6-diazaspiro[3.5]nonan-6-yl)quinazolin-7-yl)-7-fluorobenzo[b]thiophene-3-carbonitrile]	≤ 500	
CC(C)[C@H]1N(C(=O)n2cnc(O)n2)C[C@]12CCCCN(c1nc(OC[C@@]34CCCN3C[C@H](F)C4)nc3c(F)c(-c4ccc(F)c5sc(N)c(C#N)c45)c(Cl)cc13)C2 [Compound 224, 2-amino-4-(6-chloro-8-fluoro-2-(((2R,7aS)-2-fluorotetrahydro-1H-pyrrolizin-7a(5H)-yl)methoxy)-4-((1R,4R)-2-(3-hydroxy-1H-1,2,4-triazole-1-carbonyl)-1-isopropyl-2,6-diazaspiro[3.6]decan-6-yl)quinazolin-7-yl)-7-fluorobenzo[b]thiophene-3-carbonitrile]	≤ 500	
CC(C)[C@H]1N(C(=O)n2cnc(C(F)F)n2)C[C@]12CCCCN(c1nc(OC[C@@]34CCCN3C[C@H](F)C4)nc3c(F)c(-c4ccc(F)c5sc(N)c(C#N)c45)c(Cl)cc13)C2 [Compound 226, 2-amino-4-(6-chloro-4-((1R,4R)-2-(3-(difluoromethyl)-1H-1,2,4-triazole-1-carbonyl)-1-isopropyl-2,6-diazaspiro[3.6]decan-6-yl)-8-fluoro-2-(((2R,7aS)-2-fluorotetrahydro-1H-pyrrolizin-7a(5H)-yl)methoxy)quinazolin-7-yl)-7-fluorobenzo[b]thiophene-3-carbonitrile]	≤ 500	
CC(C)[C@H]1N(C(=O)n2cnc(C#N)n2)C[C@]12CC[C@H](C)N(c1nc(OC[C@@]34CCCN3C[C@H](F)C4)nc3c(F)c(-c4ccc(F)c5sc(N)c(C#N)c45)c(Cl)cc13)C2 [Compound 227, 1-((1R,4R,7S)-6-(7-(2-amino-3-cyano-7-fluorobenzo[b]thiophen-4-yl)-6-chloro-8-fluoro-2-(((2R,7aS)-2-fluorotetrahydro-1H-pyrrolizin-7a(5H)-yl)methoxy)quinazolin-4-yl)-1-isopropyl-7-methyl-2,6-diazaspiro[3.5]nonane-2-carbonyl)-1H-1,2,4-triazole-3-carbonitrile]	≤ 500	
CN(C[C@@H]1CN(C(=O)n2cnc(C(F)F)n2)[C@@H]1C(C)(C)C)c1nc(OC[C@@]23CCCN2C[C@H](F)C3)nc2c(F)c(-c3ccc(F)c4sc(N)c(C#N)c34)c(Cl)cc12 [Compound 228, 2-amino-4-(4-((((2S,3R)-2-(tert-butyl)-1-(3-(difluoromethyl)-1H-1,2,4-triazole-1-carbonyl)azetidin-3-yl)methyl)(methyl)amino)-6-chloro-8-fluoro-2-(((2R,7aS)-2-fluorotetrahydro-1H-pyrrolizin-7a(5H)-yl)methoxy)quinazolin-7-yl)-7-fluorobenzo[b]thiophene-3-carbonitrile]	≤ 500	
C[C@H]1CC[C@]2(CN(C(=O)n3cnc(C(F)F)n3)[C@@H]2C2CCC2)CN1c1nc(OC[C@@]23CCCN2C[C@H](F)C3)nc2c(F)c(-c3ccc(F)c4sc(N)c(C#N)c34)c(Cl)cc12 [Compound 229, 2-amino-4-(6-chloro-4-((1R,4R,7S)-1-cyclobutyl-2-(3-(difluoromethyl)-1H-1,2,4-triazole-1-carbonyl)-7-methyl-2,6-diazaspiro[3.5]nonan-6-yl)-8-fluoro-2-(((2R,7aS)-2-fluorotetrahydro-1H-pyrrolizin-7a(5H)-yl)methoxy)quinazolin-7-yl)-7-fluorobenzo[b]thiophene-3-carbonitrile]	≤ 500	
CC(C)[C@@H]1[C@H](CN(C)c2nc(OC[C@@]34CCCN3C[C@H](F)C4)nc3c(F)c(-c4ccc(F)c5sc(N)c(C#N)c45)c(Cl)cc23)CN1C(=O)n1cnc(C(F)F)n1 [Compound 230, 2-amino-4-(6-chloro-4-((((2R,3R)-1-(3-(difluoromethyl)-1H-1,2,4-triazole-1-carbonyl)-2-isopropylazetidin-3-yl)methyl)(methyl)amino)-8-fluoro-2-(((2R,7aS)-2-fluorotetrahydro-1H-pyrrolizin-7a(5H)-yl)methoxy)quinazolin-7-yl)-7-fluorobenzo[b]thiophene-3-carbonitrile]	≤ 500	
C[C@H]1CC[C@]2(CN(C(=O)n3cnc(C#N)n3)[C@@H]2C2(C)CC2)CN1c1nc(OC[C@@]23CCCN2C[C@H](F)C3)nc2c(F)c(-c3ccc(F)c4sc(N)c(C#N)c34)c(Cl)cc12 [Compound 232, 1-((1R,4R,7S)-6-(7-(2-amino-3-cyano-7-fluorobenzo[b]thiophen-4-yl)-6-chloro-8-fluoro-2-(((2R,7aS)-2-fluorotetrahydro-1H-pyrrolizin-7a(5H)-yl)methoxy)quinazolin-4-yl)-7-methyl-1-(1-methylcyclopropyl)-2,6-diazaspiro[3.5]nonane-2-carbonyl)-1H-1,2,4-triazole-3-carbonitrile]		500 to 5000
CC1([C@H]2N(C(=O)n3cnc(C(F)F)n3)C[C@]23CCCN(c2nc(OC[C@@]45CCCN4C[C@H](F)C5)nc4c(F)c(-c5ccc(F)c6sc(N)c(C#N)c56)c(Cl)cc24)C3)CC1 [Compound 234, 2-amino-4-(6-chloro-4-((1R,4R)-2-(3-(difluoromethyl)-1H-1,2,4-triazole-1-carbonyl)-1-(1-methylcyclopropyl)-2,6-diazaspiro[3.5]nonan-6-yl)-8-fluoro-2-(((2R,7aS)-2-fluorotetrahydro-1H-pyrrolizin-7a(5H)-yl)methoxy)quinazolin-7-yl)-7-fluorobenzo[b]thiophene-3-carbonitrile]	≤ 500	
CC(C)[C@H]1N(C(=O)n2cnc(F)n2)C[C@]12CC(CC#N)CN(c1nc(OC[C@@]34CCCN3C[C@H](F)C4)nc3c(F)c(-c4ccc(F)c5sc(N)c(C#N)c45)c(Cl)cc13)C2 (stereo partly drawn) [Compound 235, 2-amino-4-(6-chloro-4-((1R,4R)-8-(cyanomethyl)-2-(3-fluoro-1H-1,2,4-triazole-1-carbonyl)-1-isopropyl-2,6-diazaspiro[3.5]nonan-6-yl)-8-fluoro-2-(((2R,7aS)-2-fluorotetrahydro-1H-pyrrolizin-7a(5H)-yl)methoxy)quinazolin-7-yl)-7-fluorobenzo[b]thiophene-3-carbonitrile]	≤ 500	
CN(C[C@@H]1CN(C(=O)n2cnc(C(F)F)n2)[C@@H]1C1CCC1)c1nc(OC[C@@]23CCCN2C[C@H](F)C3)nc2c(F)c(-c3ccc(F)c4sc(N)c(C#N)c34)c(Cl)cc12 [Compound 236, 2-amino-4-(6-chloro-4-((((2R,3R)-2-cyclobutyl-1-(3-(difluoromethyl)-1H-1,2,4-triazole-1-carbonyl)azetidin-3-yl)methyl)(methyl)amino)-8-fluoro-2-(((2R,7aS)-2-fluorotetrahydro-1H-pyrrolizin-7a(5H)-yl)methoxy)quinazolin-7-yl)-7-fluorobenzo[b]thiophene-3-carbonitrile]	≤ 500	
CN(C[C@@H]1CN(C(=O)n2cnc(C#N)n2)[C@@H]1C1(C)CC1)c1nc(OC[C@@]23CCCN2C[C@H](F)C3)nc2c(F)c(-c3ccc(F)c4sc(N)c(C#N)c34)c(Cl)cc12 [Compound 237, 1-((2S,3R)-3-(((7-(2-amino-3-cyano-7-fluorobenzo[b]thiophen-4-yl)-6-chloro-8-fluoro-2-(((2R,7aS)-2-fluorotetrahydro-1H-pyrrolizin-7a(5H)-yl)methoxy)quinazolin-4-yl)(methyl)amino)methyl)-2-(1-methylcyclopropyl)azetidine-1-carbonyl)-1H-1,2,4-triazole-3-carbonitrile]	≤ 500	
